According to patent US12398154B2, “Azaquinazoline pan-KRas inhibitors” (Mirati Therapeutics, Inc., priority 2020, dated 2025):
pIC50: −log10 of the molar value.

Columns and labels:
[1] = system: phospho-ERK in AsPC-1 (G12D) cells; test: Inhibition of KRas-mediated phosphorylation of ERK (in-cell western); format: cell-based; settings: Homo sapiens, ASPC1, 3 h, 3 hours compound, phospho-ERK normalized to GAPDH
Protocol: (§1) Diluted compounds were then added in a final concentration of 0.5% DMSO. After 3 hours, 50 μL of 4.0% formaldehyde was added and the plates incubated at room temperature for 20 minutes. The plates were then dumped and permeabilized with 150 μL of ice cold 100% methanol for 10 minutes.
(§2) The amount of phospho-ERK was determined using an antibody specific for the phosphorylated form of ERK and compared to the amount of GAPDH. […] The plates were incubated overnight at 4° C. The plates were washed 3× with 150 uL PBS+0.1% Tween 20.
(§3) The plates were washed 3× with 150 uL PBS+0.1% Tween 20. Plates were imaged dry on a Li-COR Odyssey CLX plate reader.
(§4) The phospho-ERK (Thr202/Tyr204) signal was normalized to the GAPDH signal for each well and percent of DMSO control values were calculated. IC50 values were generated using a 4-parameter fit of the dose response curve.

[2] = system: phospho-ERK in NCI-H460 (Q61H) cells; test: as above; format: cell-based; settings: Homo sapiens, NCI-H460, 3 h, 3 hours compound, phospho-ERK normalized to GAPDH
Protocol: as §1, §2, §3, §4

[3] = system: phospho-ERK in NCI-H727 (G12V) cells; test: as above; format: cell-based; settings: Homo sapiens, NCI-H727, 3 h, 3 hours compound, phospho-ERK normalized to GAPDH
Protocol: as §1, §2, §3, §4

[4] = molecular target: KRas G12D (Homo sapiens, UniProt P01116, G12D); test: biochemical;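 further: TR-FRET displacement binding assay on KRas, read after a one-hour incubation at room temperature, IC50 fitted from percent-of-control values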
Protocol: (§5) The ability of a compound to bind to KRas was measured using a TR-FRET displacement assay. […] After a 60-minute incubation at room temperature, the reaction was measured using a BMG LABTECH CLARIO star Plus via TR-FRET. […] The POC values were fit to a 4-parameter IC50 equation and the IC50 value reported.

[5] = molecular target: KRas G12V (Homo sapiens, UniProt P01116, G12V); test: biochemical;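 further: KRas binding measured by TR-FRET displacement at room temperature, IC50 fitted from percent of control values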
Protocol: as §5

[6] = molecular target: KRas G12R (Homo sapiens, UniProt P01116, G12R); test: biochemical;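 further: TR-FRET displacement assay of compound binding to KRas, read after one hour at room temperature, potency from a four-parameter fit of percent-of-control values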
Protocol: as §5

[7] = system: pERK in MKN1 cells; test: Inhibition of KRas phosphorylation of ERK (Cisbio HTRF pERK assay); settings: Homo sapiens, MKN-1, 3 h, read-out: Inhibition (HTRF IC50) of KRas-mediated Phosphorylation of ERK, MKN1
Protocol: To harvest cells from flask using 0.05% Trypsin/EDTA solution. Add 10 mL of media to stop trypsinizing. Pipette the cells into a conical bottom 50 mL centrifuge tube and centrifuge 5 min×1000 rpm. • 2. Re-suspend the cell pellet in media, take a cell count, and then adjust the cell density using fresh media. • 3. Seed 6,000 cells into cell culture plate with 50 μL media. […] Incubate cell plate overnight in a 37° C., 5% CO2 incubator. • Compound titrations • 1. Use Tecan to complete the compound addition. Compounds start from 10 uM top, 3-fold dilution, and 10 doses. The final DMSO concentration is 0.8%. Dispensed 0.2 uM Trametinib as Min control. • 2. Incubate cell plate for 3 hrs in the incubator. • Detection with cisbio pERK HTRF kit • 1. […] At the end of the compound treatment, flick-off the media. • 3. Add 35 μL of lysis buffer per well using a Multidrop Combi. Then place on a plate agitator shaking at 300 rpm at 4° C. for 40 mins. • 4. Make up the HTRF antibody buffer. For each assay plate, mix 50 μL of d2-conjugate antibody with 950 μL of detection buffer. Similarly, mix 50 μL of Cryptate antibody with 950 μL of detection buffer. Then mix the two diluted antibodies together. • 5. Dispense 3.4 μL the antibody buffer to wells of an empty assay plate. Seal the plate and centrifuge plate 30 sec×1000 rpm. • 6. At the end of the 4° C. lysis, centrifuge the lysate plates 3 mins×1500 rpm. • 7. Use the Bravo to transfer 13.6 μL of lysate from cell culture plate to assay plate.
Then incubate assay plate for 2 hrs at room temperature. […] At the end of incubation, read plate on the Envision after centrifuging plate 30 sec× • 1000 rpm.

[8] = system: pERK in PSN1 cells; test: as above; settings: Homo sapiens, PSN1, 3 h, read-out: Inhibition (HTRF IC50) of KRas-mediated Phosphorylation of ERK, PSN1
[9] = molecular target: KRas G12A (Homo sapiens, UniProt P01116, G12A); test: biochemical;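 further: binding to KRas measured by TR-FRET displacement after one hour at room temperature, IC50 from a four-parameter fit of percent-of-control values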
Protocol: as §5

[10] = molecular target: KRas G12S (Homo sapiens, UniProt P01116, G12S); test: biochemical;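 further: TR-FRET displacement binding to KRas, read after one hour incubation at room temperature, IC50 from four-parameter fit of percent of control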
Protocol: as §5

[11] = molecular target: KRas G12C (Homo sapiens, UniProt P01116, G12C); test: biochemical;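 further: binding to KRas assessed by TR-FRET displacement after one hour incubation at room temperature, potency fitted from percent-of-control values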
Protocol: as §5

[12] = molecular target: KRas WT (Homo sapiens, UniProt P01116); test: biochemical;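 further: binding to KRas read as TR-FRET displacement after a one-hour room-temperature incubation, IC50 derived from percent-of-control values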
KRas WT, sequence (P01116 1-169 isoform P01116-2): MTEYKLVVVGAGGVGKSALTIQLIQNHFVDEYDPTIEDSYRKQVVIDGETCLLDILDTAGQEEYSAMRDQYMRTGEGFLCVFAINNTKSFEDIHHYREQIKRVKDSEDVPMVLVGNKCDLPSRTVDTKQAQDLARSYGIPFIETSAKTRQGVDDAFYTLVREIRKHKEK
Protocol: as §5

KRas G12R, sequence (P01116 1-169 isoform P01116-2 G12R): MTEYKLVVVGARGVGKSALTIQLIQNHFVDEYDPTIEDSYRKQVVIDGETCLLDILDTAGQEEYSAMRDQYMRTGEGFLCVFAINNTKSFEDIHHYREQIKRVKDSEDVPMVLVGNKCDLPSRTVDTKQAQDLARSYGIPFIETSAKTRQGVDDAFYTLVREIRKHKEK
KRas G12V, sequence (P01116 1-169 isoform P01116-2 G12V): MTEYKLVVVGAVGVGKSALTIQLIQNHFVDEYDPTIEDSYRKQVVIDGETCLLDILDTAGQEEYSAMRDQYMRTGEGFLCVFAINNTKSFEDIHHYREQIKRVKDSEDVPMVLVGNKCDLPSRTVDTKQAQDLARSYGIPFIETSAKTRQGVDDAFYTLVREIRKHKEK
KRas G12D, sequence (P01116 1-169 isoform P01116-2 G12D): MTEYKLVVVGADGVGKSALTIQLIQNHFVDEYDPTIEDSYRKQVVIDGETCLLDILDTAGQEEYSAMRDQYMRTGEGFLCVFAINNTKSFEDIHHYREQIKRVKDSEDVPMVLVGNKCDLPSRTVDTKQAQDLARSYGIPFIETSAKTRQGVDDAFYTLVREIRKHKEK
KRas G12S, sequence (P01116 1-169 isoform P01116-2 G12S): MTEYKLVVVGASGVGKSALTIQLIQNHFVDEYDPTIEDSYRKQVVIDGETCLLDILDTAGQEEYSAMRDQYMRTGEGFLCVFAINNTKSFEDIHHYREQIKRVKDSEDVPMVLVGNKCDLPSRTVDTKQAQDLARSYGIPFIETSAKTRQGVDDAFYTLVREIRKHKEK
KRas G12A, sequence (P01116 1-169 isoform P01116-2 G12A): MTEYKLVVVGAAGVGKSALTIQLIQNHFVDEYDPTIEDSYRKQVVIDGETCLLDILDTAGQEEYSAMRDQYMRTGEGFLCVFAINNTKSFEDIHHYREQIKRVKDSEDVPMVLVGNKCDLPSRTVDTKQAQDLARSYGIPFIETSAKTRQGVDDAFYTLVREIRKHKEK
KRas G12C, sequence (P01116 1-169 isoform P01116-2 G12C): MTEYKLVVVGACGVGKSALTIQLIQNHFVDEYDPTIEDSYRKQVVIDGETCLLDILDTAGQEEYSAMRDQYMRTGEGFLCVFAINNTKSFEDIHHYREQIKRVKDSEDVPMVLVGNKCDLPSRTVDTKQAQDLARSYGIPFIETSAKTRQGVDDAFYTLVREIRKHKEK

Structure (SMILES) | pIC50 [4] | pIC50 [5] | pIC50 [6] | pIC50 [7] | pIC50 [8] | pIC50 [9] | pIC50 [10] | pIC50 [11] | pIC50 [12] | IC50 [1] [nM] | IC50 [2] [nM] | IC50 [3] [nM]
CCc1c(F)ccc2cc(O)cc(-c3ncc4c(N5CC[C@H](C)[C@@H](O)C5)nc(OC[C@@]56CCCN5C[C@H](F)C6)nc4c3F)c12 [Example 188] | 7.32 | 7.72 | 7.64 | 7.11 | ≤ 5.00 | – | – | – | – | 2070 | 478 | 2140
CCc1c(F)ccc2cc(O)cc(-c3ncc4c(NCCCc5cccnc5)nc(OC[C@@]56CCCN5C[C@H](F)C6)nc4c3F)c12 [Example 198, 5-ethyl-6-fluoro-4-(8-fluoro-2-(((2R,7aS)-2-fluorohexahydro-1H-pyrrolizin-7a-yl)methoxy)-4-((3-(pyridin-3-yl)propyl)amino)pyrido[4,3-d]pyrimidin-7-yl)naphthalen-2-ol] | 7.07 | 8.05 | 8.10 | 6.74 | ≤ 5.00 | – | – | – | – | 2690 | 803 | 1750
CCc1c(F)ccc2cc(O)cc(-c3ncc4c(NCc5ccc(=O)n(C)c5)nc(OC[C@@]56CCCN5C[C@H](F)C6)nc4c3F)c12 [Example 199] | 8.52 | ≥ 8.70 | ≥ 8.70 | 8.15 | ≤ 5.00 | – | – | – | – | 1320 | 314 | 798
CCc1c(F)ccc2cc(O)cc(-c3ncc4c(Nc5cnn(-c6ccncc6)c5)nc(OC[C@@]56CCCN5C[C@H](F)C6)nc4c3F)c12 [Example 297, 5-ethyl-6-fluoro-4-(8-fluoro-2-(((2R,7aS)-2-fluorohexahydro-1H-pyrrolizin-7a-yl)methoxy)-4-((1-(pyridin-4-yl)-1H-pyrazol-4-yl)amino)pyrido[4,3-d]pyrimidin-7-yl)naphthalen-2-ol] | 7.27 | ≥ 8.70 | 8.05 | 6.81 | ≤ 5.00 | – | – | – | – | 3430 | 660 | 450
CCc1c(F)ccc2cc(O)cc(-c3ncc4c(N5CCC[C@@](C)(O)C5)nc(OC[C@]56CCCN5[C@@H](CO)CC6)nc4c3F)c12 [Example 303, (R)-1-(7-(8-ethyl-7-fluoro-3-hydroxynaphthalen-1-yl)-8-fluoro-2-(((3R,7aR)-3-(hydroxymethyl)hexahydro-1H-pyrrolizin-7a-yl)methoxy)pyrido[4,3-d]pyrimidin-4-yl)-3-methylpiperidin-3-ol] | ≥ 8.70 | ≥ 8.70 | ≥ 8.70 | 6.45 | ≤ 5.00 | – | – | – | – | 3290 | 4120 | 3690
CCc1c(F)ccc2cc(O)cc(-c3ncc4c(N5CCC[C@@](C)(O)C5)nc(OC[C@@]56CCCN5[C@H](CO)CC6)nc4c3F)c12 [Example 304, (R)-1-(7-(8-ethyl-7-fluoro-3-hydroxynaphthalen-1-yl)-8-fluoro-2-(((3S,7aS)-3-(hydroxymethyl)hexahydro-1H-pyrrolizin-7a-yl)methoxy)pyrido[4,3-d]pyrimidin-4-yl)-3-methylpiperidin-3-ol] | ≥ 8.70 | ≥ 8.70 | ≥ 8.70 | 7.54 | ≤ 5.00 | – | – | – | – | 1370 | 804 | 2580
Cc1cc(N)nc(-c2ncc3c(N4CCCC(C)(O)C4)nc(OC[C@@]45CCCN4C[C@H](F)C5)nc3c2F)c1C(F)(F)F (stereo partly drawn) [Example 459, 1-(7-(6-amino-4-methyl-3-(trifluoromethyl)pyridin-2-yl)-8-fluoro-2-(((2R,7aS)-2-fluorohexahydro-1H-pyrrolizin-7a-yl)methoxy)pyrido[4,3-d]pyrimidin-4-yl)-3-methylpiperidin-3-ol] | 6.27 | 6.12 | 6.00 | – | – | 6.09 | 6.09 | 6.09 | 6.16 | 9940 | ≥ 10000 | ≥ 10000

Second part, led by results:

pIC50 [4] | pIC50 [5] | pIC50 [6] | pIC50 [7] | pIC50 [8] | pIC50 [9] | pIC50 [10] | pIC50 [11] | pIC50 [12] | Structure (SMILES) | IC50 [1] [nM] | IC50 [2] [nM] | IC50 [3] [nM]
7.49 | 7.74 | 7.74 | 7.54 | 5.26 | – | – | – | – | CCc1c(F)ccc2cc(O)cc(-c3ncc4c(N5CC[C@@H](C)[C@@H](O)C5)nc(OC[C@@]56CCCN5C[C@H](F)C6)nc4c3F)c12 [Example 189] | 1240 | 377 | 1430
8.05 | 8.40 | 8.40 | 7.82 | 5.23 | – | – | – | – | CCc1c(F)ccc2cc(O)cc(-c3ncc4c(N5CCC(F)(F)C(O)C5)nc(OC[C@@]56CCCN5C[C@H](F)C6)nc4c3F)c12 (some centres unmarked) [Example 191] | 665 | 230 | 714
≥ 8.70 | ≥ 8.70 | ≥ 8.70 | 8.40 | 5.13 | – | – | – | – | CCc1c(F)ccc2cc(O)cc(-c3ncc4c(N5C[C@H](O)C[C@H](F)C5)nc(OC[C@@]56CCCN5C[C@H](F)C6)nc4c3F)c12 [Example 192] | 90 | 51 | 191
≥ 8.70 | ≥ 8.70 | ≥ 8.70 | 7.46 | 5.43 | – | – | – | – | NS(=O)(=O)CC1CCCN(c2nc(OC[C@@]34CCCN3C[C@H](F)C4)nc3c(F)c(-c4cc(O)cc5ccc(F)c(F)c45)ncc23)C1 (some centres unmarked) [Example 203] | 8010 | 758 | 1270
≥ 8.70 | ≥ 8.70 | ≥ 8.70 | 7.47 | ≤ 5.00 | – | – | – | – | CCc1c(F)ccc2cc(O)cc(-c3ncc4c(N5CCC[C@]6(CNC(=O)C6)C5)nc(OC[C@]56CCCN5C[C@@H](O)C6)nc4c3F)c12 [Example 206] | 6960 | 3380 | 3330
≥ 8.70 | ≥ 8.70 | ≥ 8.70 | 7.82 | ≤ 5.00 | – | – | – | – | CCc1c(F)ccc2cc(O)cc(-c3ncc4c(N5CCC[C@@](C)(O)C5)nc(OC[C@@]56CCCN5C[C@H](O)C6)nc4c3F)c12 [Example 311, (2R,7aS)-7a-(((7-(8-ethyl-7-fluoro-3-hydroxynaphthalen-1-yl)-8-fluoro-4-((R)-3-hydroxy-3-methylpiperidin-1-yl)pyrido[4,3-d]pyrimidin-2-yl)oxy)methyl)hexahydro-1H-pyrrolizin-2-ol] | 738 | 501 | 2600
8.40 | ≥ 8.70 | ≥ 8.70 | 5.09 | ≤ 5.00 | – | – | – | – | O=C1NCC2(CCCN(c3nc(OC[C@@]45CCCN4C[C@H](F)C5)nc4c(F)c(-c5cc(O)cc6ccc(F)c(F)c56)ncc34)C2)N1 (stereo partly drawn) [Example 445, 7-(7-(7,8-difluoro-3-hydroxynaphthalen-1-yl)-8-fluoro-2-(((2R,7aS)-2-fluorohexahydro-1H-pyrrolizin-7a-yl)methoxy)pyrido[4,3-d]pyrimidin-4-yl)-1,3,7-triazaspiro[4.5]decan-2-one] | 1620 | 1190 | 2930
8.40 | ≥ 8.70 | 8.40 | 6.10 | ≤ 5.00 | – | – | – | – | O=C1CC2(CCCN(c3nc(OC[C@@]45CCCN4C[C@H](F)C5)nc4c(F)c(-c5cc(O)cc6ccc(F)c(F)c56)ncc34)C2)CN1 (stereo partly drawn) [Example 446, 7-(7-(7,8-difluoro-3-hydroxynaphthalen-1-yl)-8-fluoro-2-(((2R,7aS)-2-fluorohexahydro-1H-pyrrolizin-7a-yl)methoxy)pyrido[4,3-d]pyrimidin-4-yl)-2,7-diazaspiro[4.5]decan-3-one] | 3670 | 2190 | 2500
